target: IDO (Homo sapiens (Human), UniProt P14902); assay: Kynurenine assay in IFN-γ-stimulated Hela cells; assay type: cell-based; settings: 20 h, read-out: Hela Kyurenine (IC50)
Method: Reagents: Hela cells (ATCC, CCL-2)
IFNg (R&D, 28-IF-100)—resuspend at 10 ug/mL in PBS with 0.1% BSA 30% TCA
Ehrlich reagent (2% w/v p-dimethylaminobenzaldehyde in glacial acetic acid)
Cell Lines and Culture Conditions
Hela cancer cell lines were acquired from the American Type Culture Collection. Cells were maintained in phenol red free-RPMI1640 medium containing high glucose and L-glutamine (Invitrogen) supplemented with 10% fetal bovine serum (FBS; Invitrogen). Cell cultures were incubated at 37° C., 5% CO2, and 100% humidity.
Cell Treatment and Kynurenine Assay
Hela cells were seeded on 96-well plates (40,000 cells per well) and allowed to adhere for 5-6 hours. Cells were then treated with vehicle (DMSO) or with IDO inhibitor at a top dose of 30 μM (3-fold dilution all the way down to 1.5 nM). A final concentration of 100 ng/mL of human recombinant IFN-γ (R&D, 28-IF-100) was immediately added to the cells to stimulate IDO expression. Treated cells were then incubated for 20 hours at 37° C. At the end of the 20 h incubation, reactions were terminated by the addition of 30% TCA to each well. Plates were incubated for 30 minutes at 50° C. to hydrolyze N-formylkynurenine to kynurenine. Cells were centrifuged 10 minutes at 2400 rpm. 100 ul of supernatants were transferred to new 96 flat well plates and mixed with 100 ul Ehrlich reagent. The resulting solution was incubated 10 minutes at RT. Absorbance at 490 nm was read using Spectra Max 384 (Molecular Devices).

Chain of IDO (P14902 whole entry): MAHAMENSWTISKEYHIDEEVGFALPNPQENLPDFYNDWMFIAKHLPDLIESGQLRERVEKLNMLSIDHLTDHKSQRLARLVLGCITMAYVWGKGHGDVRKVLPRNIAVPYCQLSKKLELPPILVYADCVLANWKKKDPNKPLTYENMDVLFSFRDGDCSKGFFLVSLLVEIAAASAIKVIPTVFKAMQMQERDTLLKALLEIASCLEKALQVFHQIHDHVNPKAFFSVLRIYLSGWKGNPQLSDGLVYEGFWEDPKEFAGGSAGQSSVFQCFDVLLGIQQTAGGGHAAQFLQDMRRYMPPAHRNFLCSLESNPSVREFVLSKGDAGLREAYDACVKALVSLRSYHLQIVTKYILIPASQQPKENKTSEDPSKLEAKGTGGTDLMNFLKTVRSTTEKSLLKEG

IC50 | Structure (SMILES)
1070 nM | COc1cc(-c2ccc(Oc3ccccc3C(C)(C)C)c(NC(=O)Nc3cccc(C)c3)c2)ccc1C(=O)O [Example 212, 4′-(2-tert-butylphenoxy)-3-methoxy-3′-(3-m-tolylureido) biphenyl-4-carboxylic acid]
150 nM | CC(C)(C)c1ccccc1Oc1ccc(-c2ccc(C(=O)O)c(Cl)c2)cc1NC(=O)Nc1ccccc1C(F)(F)F [Example 214, 4′-(2-tert-butylphenoxy)-3-chloro-3′-(3-(2-(trifluoromethyl)phenyl)ureido) biphenyl-4-carboxylic acid]
1090 nM | Cc1ccccc1NC(=O)Nc1cc(-c2ccc(C(=O)O)c(Cl)c2)ccc1Oc1ccccc1C(C)(C)C [Example 216, 4′-(2-tert-butylphenoxy)-3-chloro-3′-(3-o-tolylureido) biphenyl-4-carboxylic acid]
1250 nM | CC(C)(C)c1ccccc1Oc1ccc(-c2ccc(C(=O)O)c(F)c2)cc1NC(=O)Nc1ccccc1Cl [Example 217, 4′-(2-tert-butylphenoxy)-3′-(3-(2-chlorophenyl)ureido)-3-fluorobiphenyl-4-carboxylic acid]
650 nM | Cc1ccc(NC(=O)Nc2cc(-c3ccc(C(=O)O)c(F)c3)ccc2Oc2ccccc2C(C)(C)C)cc1 [Example 218, 4′-(2-tert-butylphenoxy)-3-fluoro-3′-(3-p-tolylureido) biphenyl-4-carboxylic acid]
930 nM | CCNC(=O)Nc1cc(-c2cccc(C(=O)O)c2)ccc1Oc1ccccc1C(C)(C)C [Example 220, 4′-(2-tert-butylphenoxy)-3′-(3-ethylureido) biphenyl-3-carboxylic acid]
1010 nM | CC(C)(C)c1ccccc1Oc1ccc(-c2cccc(C(=O)O)c2)cc1NC(=O)NC1CCCCC1 [Example 221, 4′-(2-tert-butylphenoxy)-3′-(3-cyclohexylureido) biphenyl-3-carboxylic acid]
1630 nM | CC(C)(C)c1ccccc1Oc1ccc(-c2cc(F)cc(C(=O)O)c2)cc1NC(=O)Nc1ccc(OC(F)(F)F)cc1 [Example 222, 4′-(2-tert-butylphenoxy)-5-fluoro-3′-(3-(4-(trifluoromethoxy)phenyl)ureido) biphenyl-3-carboxylic acid]
420 nM | CC(C)(C)c1ccccc1Oc1ccc(-c2cccc(C(=O)O)c2)cc1NC(=O)Nc1ccccc1Cl [Example 228, 4′-(2-tert-butylphenoxy)-3′-(3-(2-chlorophenyl)ureido)biphenyl-3-carboxylic acid]
720 nM | CC(C)(C)c1ccccc1Oc1ccc(-c2cccc(C(=O)O)c2)cc1NC(=O)Nc1cccc(Cl)c1 [Example 231, 4′-(2-tert-butylphenoxy)-3′-(3-(3-chlorophenyl)ureido)biphenyl-3-carboxylic acid]
1850 nM | CC(C)(C)c1ccccc1Oc1ccc(-c2cccc(C(=O)O)c2)cc1NC(=O)Nc1ccccc1 [Example 234, 4′-(2-tert-butylphenoxy)-3′-(3-phenylureido) biphenyl-3-carboxylic acid]
1430 nM | Cc1ccc(NC(=O)Nc2cc(-c3cccc(C(=O)O)c3)ccc2Oc2ccccc2)cc1 [Example 235, 4′-phenoxy-3′-(3-p-tolylureido) biphenyl-3-carboxylic acid]
1020 nM | Cc1cccc(NC(=O)Nc2cc(-c3cc(Cl)cc(C(=O)O)c3)ccc2Oc2ccccc2C(C)(C)C)c1 [Example 239, 4′-(2-tert-butylphenoxy)-5-chloro-3′-(3-m-tolylureido) biphenyl-3-carboxylic acid]
540 nM | CC(C)(C)c1ccccc1Oc1ccc(-c2cc(Cl)cc(C(=O)O)c2)cc1NC(=O)Nc1ccc(C#N)cc1 [Example 240, 4′-(2-tert-butylphenoxy)-5-chloro-3′-(3-(4-cyanophenyl)ureido)biphenyl-3-carboxylic acid]
1040 nM | CC(C)(C)c1ccccc1Oc1ccc(-c2cc(Cl)cc(C(=O)O)c2)cc1NC(=O)Nc1ccc(C(F)(F)F)cc1 [Example 241, 4′-(2-tert-butylphenoxy)-5-chloro-3′-(3-(4-(trifluoromethyl)phenyl)ureido) biphenyl-3-carboxylic acid]
1150 nM | O=C(Nc1ccccc1Cl)Nc1cc(-c2cccc(C(=O)O)c2)ccc1Oc1ccc(Cl)cc1 [Example 242, 4′-(4-chlorophenoxy)-3′-(3-(2-chlorophenyl)ureido)biphenyl-3-carboxylic acid]
1820 nM | O=C(Nc1ccc(OC(F)(F)F)cc1)Nc1cc(-c2cccc(C(=O)O)c2)ccc1Oc1ccc(Cl)cc1 [Example 243, 4′-(4-chlorophenoxy)-3′-(3-(4-(trifluoromethoxy)phenyl)ureido) biphenyl-3-carboxylic acid]
840 nM | Cc1ccccc1NC(=O)Nc1cc(-c2cccc(C(=O)O)c2)ccc1Oc1cccc(Cl)c1 [Example 244, 4′-(3-chlorophenoxy)-3′-(3-o-tolylureido) biphenyl-3-carboxylic acid]
1340 nM | Cc1ccc(NC(=O)Nc2cc(-c3cccc(C(=O)O)c3)ccc2Oc2c(Cl)cccc2Cl)cc1 [Example 247, 4′-(2,6-dichlorophenoxy)-3′-(3-p-tolylureido) biphenyl-3-carboxylic acid]
1490 nM | Cc1ccc(NC(=O)Nc2cc(-c3cccc(C(=O)O)c3)ccc2Oc2ccc(Cl)cc2)cc1 [Example 248, 4′-(4-chlorophenoxy)-3′-(3-p-tolylureido) biphenyl-3-carboxylic acid]
2550 nM | Cc1cccc(NC(=O)Nc2cc(-c3cccc(C(=O)O)c3)ccc2Oc2ccc(Cl)cc2)c1 [Example 249, 4′-(4-chlorophenoxy)-3′-(3-m-tolylureido) biphenyl-3-carboxylic acid]
1060 nM | O=C(Nc1cc(-c2cc(Cl)cc(C(=O)O)c2)ccc1Oc1ccccc1)Nc1ccccc1C(F)(F)F [Example 250, 5-chloro-4′-phenoxy-3′-(3-(2-(trifluoromethyl)phenyl)ureido) biphenyl-3-carboxylic acid]
740 nM | Cc1cccc(NC(=O)Nc2cc(-c3cc(F)cc(C(=O)O)c3)ccc2Oc2ccccc2C(C)(C)C)c1 [Example 251, 4′-(2-tert-butylphenoxy)-5-fluoro-3′-(3-m-tolylureido) biphenyl-3-carboxylic acid]
660 nM | Cc1ccc(NC(=O)Nc2cc(-c3cc(F)cc(C(=O)O)c3)ccc2Oc2ccccc2C(C)(C)C)cc1 [Example 252, 4′-(2-tert-butylphenoxy)-5-fluoro-3′-(3-p-tolylureido) biphenyl-3-carboxylic acid]
1100 nM | CC(C)(C)c1ccccc1Oc1ccc(-c2cc(F)cc(C(=O)O)c2)cc1NC(=O)Nc1ccccc1Cl [Example 253, 4′-(2-tert-butylphenoxy)-3′-(3-(2-chlorophenyl)ureido)-5-fluorobiphenyl-3-carboxylic acid]
370 nM | COc1ccc(-c2ccc(Oc3ccccc3C(C)(C)C)c(NC(=O)Nc3ccc(C)cc3)c2)cc1C(=O)O [Example 255, 4′-(2-tert-butylphenoxy)-4-methoxy-3′-(3-p-tolylureido) biphenyl-3-carboxylic acid]
310 nM | Cc1ccc(NC(=O)Nc2cc(-c3ccc(C(=O)O)cc3)ccc2Oc2ccccc2C(C)(C)C)cc1 [Example 256, 4′-(2-tert-butylphenoxy)-3′-(3-p-tolylureido) biphenyl-4-carboxylic acid]
2250 nM | COc1cc(-c2ccc(Oc3ccccc3C(C)(C)C)c(NC(=O)Nc3ccc(C)cc3)c2)ccc1C(=O)O [Example 258, 4′-(2-tert-butylphenoxy)-3-methoxy-3′-(3-p-tolylureido) biphenyl-4-carboxylic acid]

Reference: patent US9765018B2, “IDO inhibitors” (BRISTOL-MYERS SQUIBB COMPANY, priority 2013, dated 2017)
